Assay [1] addresses Enoyl reducase (ENR) from Bacillus anthracis (BaENR) (Bacillus anthracis, UniProt A0A6L8PBX8). Description: biochemical. Conditions: for inhibition at 1 µM: read-out: % inhibition at 1μM.
The test system of assay [2] is ΔANR B. anthracis. Description: microbe, parasite or virus in culture. The assay is classed as cell-based, Bacillus anthracis.

Values after ≈ are worked out from the molar mass of the structure shown. Values joined by “and” are separate entries in the source; they are usually repeats but may differ in a detail not shown here. Equal entries are not always repeated. Where two headings read alike, the source gives them in different places.

Sequence of Enoyl reducase (ENR) from Bacillus anthracis (BaENR) (A0A6L8PBX8 1-256): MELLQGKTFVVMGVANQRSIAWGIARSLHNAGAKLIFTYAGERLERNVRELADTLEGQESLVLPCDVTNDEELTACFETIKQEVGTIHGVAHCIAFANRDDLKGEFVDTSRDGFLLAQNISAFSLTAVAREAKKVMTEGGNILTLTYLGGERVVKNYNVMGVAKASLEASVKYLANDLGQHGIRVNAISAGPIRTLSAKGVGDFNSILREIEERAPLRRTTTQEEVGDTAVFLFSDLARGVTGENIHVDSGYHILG

A word on the % inhibition: it is the share of the control response that was lost under treatment. Read a high % inhibition as a strong effect. For the molecule “3-[3-(2-Hydroxy-4-propylphenoxy)phenyl]propionic acid [Compound 50]”, the “% inhibition at 1μM” value in assay [1] is listed as 17.9%. Also, the MIC in assay [2] worked out at 14.9 µg/mL.
Broadly, the IC50 is the concentration needed to halve the response being measured. Low values mean inhibition by little substance, high ones a need for much substance. In assay [1] (IC50), `Oc1ccc(Oc2ccccc2)c(O)c1` [Compound 1, 4-Phenoxybenzene-1,3-diol] gave an IC50 of 6.3 ± 0.4 µM. Moreover, the MIC in assay [2] (Bacillus anthracis) was 64 µg/mL (≈ 317 µM).
For `O=[N+]([O-])c1ccc(Oc2ccccc2)c(O)c1` [Compound 2, 5-Nitro-2-phenoxyphenol] the same measures were > 50 µM and 5.8 µg/mL (≈ 25.1 µM).
What is called inhibition is how much of the control response was suppressed. Turning to `Oc1ccc(Oc2ccc(Cl)cc2O)cc1` [Compound 3, 5-Chloro-2-(4-hydroxyphenoxy)phenol], the inhibition at 1 µM in assay [1] came out at 2.6%. The MIC in assay [2] (Bacillus anthracis) is > 64 µg/mL.
In assay [2] (Bacillus anthracis), `O=[N+]([O-])c1ccc(Oc2ccc(Cl)cc2O)cc1` [Compound 4, 5-Chloro-2-(4-nitrophenoxy)phenol] yielded an MIC of 3.3 µg/mL (≈ 12.4 µM).
`O=[N+]([O-])c1ccccc1Oc1ccc(Cl)cc1O` [Compound 5, 5-Chloro-2-(2-nitrophenoxy)phenol]: the midpoint of inhibition in assay [1] (IC50), the IC50, lay at 7.7 ± 0.7 µM. The molecule also showed an MIC in assay [2] (Bacillus anthracis) of 13.3 µg/mL (≈ 50.1 µM).
For `Oc1cc(Cl)ccc1Oc1ccc(-c2ccccc2)cc1` [Compound 7, 2-(Biphenyl-4-yloxy)-5-chlorophenol] the same measures were > 6.25 µM and 1.9 µg/mL (≈ 6.4 µM).
For `CCCc1ccc(Oc2ccc([N+](=O)[O-])cc2)c(O)c1` [Compound 8, 2-(4-Nitrophenoxy)-5-propylphenol] the same measures were 1.1 ± 0.1 µM and 3.4 µg/mL (≈ 12.4 µM).
For `CCCc1ccc(Oc2cccc([N+](=O)[O-])c2)c(O)c1` [Compound 9, 2-(3-Nitrophenoxy)-5-propylphenol] the same measures were > 0.8 µM and 1.7 µg/mL (≈ 6.22 µM).
The molecule `CCCc1ccc(Oc2ccc([N+](=O)[O-])cc2[N+](=O)[O-])c(O)c1` [Compound 10, 2-(2,4-Dinitrophenoxy)-5-propylphenol] came in with an IC50 in assay [1] (IC50) of 3.6 ± 0.8 µM. In addition, the MIC in assay [2] (Bacillus anthracis) is 4 µg/mL (≈ 12.6 µM).
Consider `CCCc1ccc(Oc2ccc(C#N)cc2Cl)c(O)c1` [Compound 12, 3-Chloro-4-(2-hydroxy-4-propylphenoxy)benzonitrile], for which, in assay [1] (IC50), the IC50 was > 0.8 µM. This molecule registered an MIC in assay [2] (Bacillus anthracis) of 1.8 µg/mL (≈ 6.26 µM).
`CCCc1ccc(Oc2cccc(CCO)c2)c(O)c1` [Compound 13, 2-[3-(2-Hydroxy-ethyl)phenoxy]-5-propylphenol] yielded an IC50 in assay [1] of 6 ± 1.5 µM. The molecule further displayed an MIC in assay [2] (Bacillus anthracis) of 1.7 µg/mL (≈ 6.24 µM).
On to `O=C(O)c1cc(Cl)ccc1Oc1ccccc1` [Compound 14, 5-Chloro-2-phenoxybenzoic acid], for which the inhibition at 1 µM in assay [1] was 0%.
In assay [1] (IC50), `CCCc1ccc(Oc2ccc(C(N)=O)cc2Cl)c(O)c1` [Compound 15, 3-Chloro-4-(2-hydroxy-4-propylphenoxy)benzamide] yielded an IC50 of 1.1 ± 0.1 µM. Further, the MIC in assay [2] (Bacillus anthracis) was 30.6 µg/mL (≈ 100 µM).
`OCc1cc(Cl)ccc1Oc1ccccc1` [Compound 16, 5-Chloro-2-phenoxyphenylmethanol]: the inhibition at 1 µM in assay [1] came to 1.8%.
Take `NC(=O)c1cc(Cl)ccc1Oc1ccccc1` [Compound 17, 5-Chloro-2-phenoxybenzamide]: the inhibition at 1 µM in assay [1] was 0%.
With `CC(=O)Nc1ccc(Oc2ccc(Cl)cc2O)cc1` [Compound 18, N-[4-(4-Chloro-2-hydroxy-phenoxy)phenyl]acetamide], the inhibition at 1 µM in assay [1] stood at 1.6%. Moreover, the MIC in assay [2] (Bacillus anthracis) is 111 µg/mL (≈ 400 µM).
Regarding `CC(=O)Nc1ccccc1Oc1ccc(Cl)cc1O` [Compound 19, N-[2-(4-Chloro-2-hydroxy-phenoxy)phenyl]acetamide], the inhibition at 1 µM in assay [1] is 0%. For the same molecule, the MIC in assay [2] (Bacillus anthracis) amounted to 111 µg/mL (≈ 400 µM).
Regarding `Nc1ccc(Oc2ccc(Cl)cc2O)cc1` [Compound 20, 2-(4-Aminophenoxy)-5-chlorophenol], the IC50 in assay [1] (IC50) was 7 µM and 7.1 µM. Also, the MIC in assay [2] (Bacillus anthracis) came to 12 µg/mL (≈ 50.9 µM).
With `CCCc1ccc(Oc2ccc(N)cc2)c(O)c1` [Compound 21, 2-(4-Aminophenoxy)-5-propylphenol], the IC50 in assay [1] (IC50) came to 8.8 ± 1 µM. In addition, the MIC in assay [2] (Bacillus anthracis) was > 97 µg/mL.
With `Cc1ccc(S(=O)(=O)Nc2ccc(Oc3ccc(Cl)cc3O)cc2)cc1` [Compound 22, 4-(4-Chloro-2-hydroxyphenoxy)-1-(4 methylphenylsulphonamido) benzene], the IC50 in assay [1] (IC50) was > 12 µM. The same molecule came in with an MIC in assay [2] (Bacillus anthracis) of 4.9 µg/mL (≈ 12.6 µM).
For the molecule `CC(=O)Nc1ccc(Oc2ccc(Cl)cc2O)cn1` [Compound 24, N-[5-(4-Chloro-2-hydroxyphenoxy)-pyridin-2-yl]acetamide], the IC50 in assay [1] (IC50) is 4.1 µM. In addition, the MIC in assay [2] (Bacillus anthracis) was > 112 µg/mL.
Turning to `OCC(O)Cc1ccc(Oc2ccccc2)c(O)c1` (stereo not drawn) [Compound 26, 3-(3-Hydroxy-4-phenoxyphenyl)propane-1,2-diol], in assay [1], the inhibition at 1 µM was found to be 9.8%. Besides, in assay [2] (Bacillus anthracis), the MIC is > 104 µg/mL.
For `CCCc1ccc(Oc2ccccc2)c(O)c1` [Compound 27, 2-Phenoxy-5-propylphenol], in assay [1] (IC50), the IC50 was > 0.8 µM. Moreover, the MIC in assay [2] (Bacillus anthracis) was 22.8 µg/mL (≈ 99.9 µM).
As to `OCc1ccc(Oc2ccccc2)c(O)c1` [Compound 28, 5-Hydroxymethyl-2-phenoxyphenol], the inhibition at 1 µM in assay [1] was found to be 5%. Further, the MIC in assay [2] (Bacillus anthracis) was 43 µg/mL (≈ 199 µM).
For `CCCC(C)NCc1ccc(Oc2ccccc2)c(O)c1` (stereo not drawn) [Compound 29, 5-[(1-Methyl-butylamino)methyl]-2-phenoxyphenol], the inhibition at 1 µM in assay [1] is 0%. Moreover, the MIC in assay [2] (Bacillus anthracis) is > 109 µg/mL.
For `Oc1cc(CN2CCCCC2)ccc1Oc1ccccc1` [Compound 30, 2-Phenoxy-5-piperidin-1-ylmethylphenol] the same measures were 0% and > 113 µg/mL.
Regarding `Oc1cc(CNCc2ccccc2)ccc1Oc1ccccc1` [Compound 31, 5-(Benzylaminomethyl)-2-phenoxyphenol], the inhibition at 1 µM in assay [1] stood at 7.9%. Moreover, the MIC in assay [2] (Bacillus anthracis) is > 122 µg/mL.
With `Oc1cc(Cl)ccc1Oc1ccc(Oc2ccc(Cl)cc2O)cc1` [Compound 32, 2-[4-(2-Hydroxy-4-Chlorophenoxy)phenoxy]-5-chlorophenol], in assay [1], the inhibition at 1 µM is 15.5%. For the same molecule, the MIC in assay [2] (Bacillus anthracis) is > 145 µg/mL.
Turning to `Oc1cc(Cl)ccc1Oc1cccc(Oc2ccc(Cl)cc2O)c1` [Compound 33, 2-[3-(2-Hydroxy-4-chlorophenoxy)phenoxy]-5-chlorophenol], the inhibition at 1 µM in assay [1] was determined as 9.9%. This molecule gave an MIC in assay [2] (Bacillus anthracis) of 2.3 µg/mL (≈ 6.33 µM).
Consider `CCCc1ccc(Oc2cccc(Oc3ccc(CCC)cc3O)c2)c(O)c1` [Compound 34, 2-[3-(2-Hydroxy-4-propylphenoxy)phenoxy]-5-Propylphenol], for which the inhibition at 1 µM in assay [1] is 20.6%. Besides, in assay [2] (Bacillus anthracis), the MIC was 1.2 µg/mL (≈ 3.17 µM).
For `CCCc1ccc(Oc2ccc(Oc3ccc(CCC)cc3O)cc2)c(O)c1` [Compound 35, 2-[4-(2-Hydroxy-4-propylphenoxy)phenoxy]-5-propylphenol] the same measures were 10% and > 151 µg/mL.
On to `CCCc1ccc(Oc2cccc(-c3ccccc3)c2)c(O)c1` [Compound 36, 2-(Biphenyl-3-yloxy)-5-propylphenol], for which, in assay [1], the IC50 amounted to 0.5 ± 0.1 µM. Also, the MIC in assay [2] (Bacillus anthracis) stood at 1.9 µg/mL (≈ 6.24 µM).
The molecule `CCCc1ccc(Oc2cccc(C(=O)OC)c2)c(O)c1` [Compound 37, 3-(2-Hydroxy-4-propylphenoxy)benzoic acid methyl ester] yielded an IC50 in assay [1] (IC50) of 2 ± 0.3 µM. This molecule showed an MIC in assay [2] (Bacillus anthracis) of 3.6 µg/mL (≈ 12.6 µM).
Take `CCCc1ccc(Oc2cccc(C(=O)O)c2)c(O)c1` [Compound 39, 3-(2-Hydroxy-4-propylphenoxy)benzoic acid]: the inhibition at 1 µM in assay [1] came to 9.2%. In assay [2] (Bacillus anthracis), the MIC stood at 6.8 µg/mL (≈ 25 µM).
`CCCc1ccc(Oc2ccc(C(C)=O)cc2)c(O)c1` [Compound 40, 1-[4-(2-Hydroxy-4-propylphenoxy)phenyl]ethanone] returned an IC50 in assay [1] (IC50) of 0.8 ± 0.1 µM. The MIC in assay [2] (Bacillus anthracis) was found to be 13.5 µg/mL (≈ 49.9 µM).
For `CCCc1ccc(Oc2ccc(SC)cc2)c(O)c1` [Compound 41, 2-(4-Methylsulfanylphenoxy)-5-propylphenol] the same measures were 0.6 µM and 13.5 µg/mL (≈ 49.2 µM).
Consider `CCCc1ccc(Oc2ccc(C(C)O)cc2)c(O)c1` (stereo not drawn) [Compound 42, 2-[4-(1-Hydroxyethyl)phenoxy]-5-propylphenol], for which the inhibition at 1 µM in assay [1] came to 17.1%. For the same molecule, the MIC in assay [2] (Bacillus anthracis) turned out to be 54.5 µg/mL (≈ 200 µM).
Take `CCCc1ccc(Oc2ccc([S+](C)[O-])cc2)c(O)c1` (stereo not drawn) [Compound 43, 2-(4-Methanesulfinylphenoxy)-5-propylphenol]: the half-inhibitory concentration (IC50) in assay [1] (IC50) amounted to 3.6 ± 0.3 µM. This molecule also had an MIC in assay [2] (Bacillus anthracis) of 116 µg/mL (≈ 399 µM).
For `CCCc1ccc(Oc2ccc(S(C)(=O)=O)cc2)c(O)c1` [Compound 44, 2-(4-Methanesulfonylphenoxy)-5-propylphenol] the same measures were 2.2 ± 0.3 µM and 61.3 µg/mL (≈ 200 µM).
`CCCc1ccc(Oc2cccc(N(C)C)c2)c(O)c1` [Compound 45, 2-(3-Dimethylaminophenoxy)-5-propylphenol]: the inhibition at 1 µM in assay [1] was found to be 12.6%. The molecule further gave an MIC in assay [2] (Bacillus anthracis) of 13.6 µg/mL (≈ 50.1 µM).
In the case of `CCCc1ccc(Oc2cccc(C(F)(F)F)c2)c(O)c1` [Compound 46, 5-Propyl-2-(3-trifluoromethylphenoxy)phenol], 1.24 µM corresponded to half-maximal inhibition in assay [1] (IC50). Also, the MIC in assay [2] (Bacillus anthracis) was determined as 7.4 µg/mL (≈ 25 µM).
`CCCc1ccc(Oc2cccc(C=CC(=O)OC)c2)c(O)c1` [Compound 48, 3-[3-(2-Hydroxy-4-propylphenoxy)phenyl]acrylic acid methyl ester]: the IC50 in assay [1] (IC50) was > 6.25 µM. The molecule also returned an MIC in assay [2] (Bacillus anthracis) of 2 µg/mL (≈ 6.4 µM).
For `CCCc1ccc(Oc2cccc(CCC(=O)OC)c2)c(O)c1` [Compound 49, 3-[3-(2-Hydroxy-4-propylphenoxy)phenyl]propionic acid methyl ester] the same measures were 7.5 ± 1.9 µM and 7.9 µg/mL (≈ 25.1 µM).
As to `CCCc1ccc(Oc2cccc(CCC(=O)O)c2)c(O)c1` [Compound 51, 3-[3-(2-Hydroxy-4-propylphenoxy)phenyl]propionic acid], the inhibition at 1 µM in assay [1] was found to be 17.6%. Further, the MIC in assay [2] (Bacillus anthracis) was determined as 60.1 µg/mL (≈ 200 µM).
As for `Clc1ccc(Oc2ccc(Cl)cc2Oc2cccnc2)c(Cl)c1` [Compound 52, 3-[5-Chloro-2-(2,4-dichlorophenoxy)phenoxy]pyridine], in assay [1], the inhibition at 1 µM is 0.5%.

Values taken from paper PMC2693028 (ChemMedChem, 2008).
